# In patent US11702404B2, “GLP-1R modulating compounds” (priority 2019, dated 2023):
# Where two headings read alike, the source gives them in different places.
# Tests used:
# GLP-1R = GLP-1R (Homo sapiens, UniProt P43220); assay: GLP-1R activation: cAMP increase in CHO cells stably expressing GLP-1R; assay type: cell-based
# [1] = Microsomal stability, human liver microsomes (predicted hepatic clearance); conditions: predicted from in vitro microsomal stability data
# [2] = cAMP increase, CHO cells stably expressing GLP-1R, 10 point dose response, 30 minutes incubation, read-out: EC50
# GLP-1R, sequence (P43220 24-463): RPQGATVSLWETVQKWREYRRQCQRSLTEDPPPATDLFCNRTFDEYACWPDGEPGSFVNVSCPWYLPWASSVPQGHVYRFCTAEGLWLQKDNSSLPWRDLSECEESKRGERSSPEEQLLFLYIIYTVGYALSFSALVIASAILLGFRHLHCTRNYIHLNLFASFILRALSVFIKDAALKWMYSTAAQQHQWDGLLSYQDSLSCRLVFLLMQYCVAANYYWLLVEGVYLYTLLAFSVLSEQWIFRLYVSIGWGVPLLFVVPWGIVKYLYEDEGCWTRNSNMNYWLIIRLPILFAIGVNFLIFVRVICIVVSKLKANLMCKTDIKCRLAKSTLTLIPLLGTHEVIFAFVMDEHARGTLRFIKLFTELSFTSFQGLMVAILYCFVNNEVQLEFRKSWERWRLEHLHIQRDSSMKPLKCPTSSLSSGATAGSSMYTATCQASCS
Compound,EC50 (GLP-1R; [2]) [nM],Predicted Hepatic Clearance (Pred. Cl.) [1] [mL/min/kg],EC50 (GLP-1R; EC50 (nM)) [nM]
"COCCn1c(Cc2ccc(-c3cccc(OCc4cc(C(C)C)ccc4OC)n3)cc2F)nc2ccc(C(=O)O)cc21 [Example 145, 2-(2-fluoro-4-(6-((5-isopropyl-2-methoxybenzyl)oxy)pyridin-2-yl)benzyl)-1-(2-methoxyethyl)-1H-benzo[d]imidazole-6-carboxylic acid]",1730,8.3,
"COCCn1c(Cc2ccc(-c3cccc(OCc4cccc5scnc45)n3)cc2F)nc2ccc(C(=O)O)cc21 [Example 146, 2-(4-(6-(benzo[d]thiazol-4-ylmethoxy)pyridin-2-yl)-2-fluorobenzyl)-1-(2-methoxyethyl)-1H-benzo[d]imidazole-6-carboxylic acid]",36.4,7.33,
"COCCn1c(Cc2ccc(-c3cccc(OCc4cccc5c4nnn5C)n3)cc2F)nc2ccc(C(=O)O)cc21 [Example 147, 2-(2-fluoro-4-(6-((1-methyl-1H-benzo[d][1,2,3]triazol-4-yl)methoxy)pyridin-2-yl)benzyl)-1-(2-methoxyethyl)-1H-benzo[d]imidazole-6-carboxylic acid]",760,12,
"COCCn1c(Cc2ccc(-c3cccc(OCc4cccc5ncsc45)n3)cc2F)nc2ccc(C(=O)O)cc21 [Example 148, 2-(4-(6-(benzo[d]thiazol-7-ylmethoxy)pyridin-2-yl)-2-fluorobenzyl)-1-(2-methoxyethyl)-1H-benzo[d]imidazole-6-carboxylic acid]",2050,11.5,
"COCCn1c(Cc2ccc(-c3cccc(OCc4cccc5c4OC(C)(C)C5)n3)cc2F)nc2ccc(C(=O)O)cc21 [Example 152, 2-(4-(6-((2,2-dimethyl-2,3-dihydrobenzofuran-7-yl)methoxy)pyridin-2-yl)-2-fluorobenzyl)-1-(2-methoxyethyl)-1H-benzo[d]imidazole-6-carboxylic acid]",130,12,
"N#CCC1(Cn2c(Cc3cc(F)c(-c4ccc(F)c(OCc5ccc(C#N)cc5F)n4)cc3F)nc3ccc(C(=O)O)cc32)CC1 [Example 153, 2-(4-(6-((4-cyano-2-fluorobenzyl)oxy)-5-fluoropyridin-2-yl)-2,5-difluorobenzyl)-1-((1-(cyanomethyl)cyclopropyl)methyl)-1H-benzo[d]imidazole-6-carboxylic acid]",0.11,5.17,
"N#CCC1(Cn2c(Cc3c(F)cc(-c4ccc(F)c(OCc5ccc(C#N)cc5F)n4)cc3F)nc3ccc(C(=O)O)cc32)CC1 [Example 154, 2-(4-(6-((4-cyano-2-fluorobenzyl)oxy)-5-fluoropyridin-2-yl)-2,6-difluorobenzyl)-1-((1-(cyanomethyl)cyclopropyl)methyl)-1H-benzo[d]imidazole-6-carboxylic acid]",0.51,4.83,
"COCCn1c(Cc2ccc(-c3cccc(OCc4cccc(C(C)(C)C)c4)n3)cc2F)nc2ccc(C(=O)O)cc21 [Example 155, 2-(4-(6-((3-(tert-butyl)benzyl)oxy)pyridin-2-yl)-2-fluorobenzyl)-1-(2-methoxyethyl)-1H-benzo[d]imidazole-6-carboxylic acid]",73.2,5.5,
"COCCn1c(Cc2ccc(-c3cccc(OCc4ccc(Cl)c(C(C)C)c4)n3)cc2F)nc2ccc(C(=O)O)cc21 [Example 156, 2-(4-(6-((4-chloro-3-isopropylbenzyl)oxy)pyridin-2-yl)-2-fluorobenzyl)-1-(2-methoxyethyl)-1H-benzo[d]imidazole-6-carboxylic acid]",51.5,5.5,
"COCCn1c(Cc2ccc(-c3cccc(OCc4cccc(C(C)C)c4OC)n3)cc2F)nc2ccc(C(=O)O)cc21 [Example 157, 2-(2-fluoro-4-(6-((3-isopropyl-2-methoxybenzyl)oxy)pyridin-2-yl)benzyl)-1-(2-methoxyethyl)-1H-benzo[d]imidazole-6-carboxylic acid]",534,7.67,
"COCCn1c(Cc2ccc(-c3cccc(OCc4cccc(C(C)C)c4F)n3)cc2F)nc2ccc(C(=O)O)cc21 [Example 158, 2-(2-fluoro-4-(6-((2-fluoro-3-isopropylbenzyl)oxy)pyridin-2-yl)benzyl)-1-(2-methoxyethyl)-1H-benzo[d]imidazole-6-carboxylic acid]",37.1,3.83,
"COCCn1c(Cc2cc(F)c(-c3nccc(OCc4ccc(C#N)cc4F)n3)cc2F)nc2ccc(C(=O)O)cc21 [Example 159, 2-(4-(4-((4-cyano-2-fluorobenzyl)oxy)pyrimidin-2-yl)-2,5-difluorobenzyl)-1-(2-methoxyethyl)-1H-benzo[d]imidazole-6-carboxylic acid]",,6,7.78
"COCCn1c(Cc2cc(F)c(-c3ncc(F)c(OCc4ccc(C#N)cc4F)n3)cc2F)nc2ccc(C(=O)O)cc21 [Example 160, 2-(4-(4-((4-cyano-2-fluorobenzyl)oxy)-5-fluoropyrimidin-2-yl)-2,5-difluorobenzyl)-1-(2-methoxyethyl)-1H-benzo[d]imidazole-6-carboxylic acid]",10.2,5,
"N#Cc1ccc(COc2nc(-c3cc(F)c(Cc4nc5ccc(C(=O)O)cc5n4CC4(CF)CC4)cc3F)ncc2F)c(F)c1 [Example 161, 2-(4-(4-((4-cyano-2-fluorobenzyl)oxy)-5-fluoropyrimidin-2-yl)-2,5-difluorobenzyl)-1-((1-(fluoromethyl)cyclopropyl)methyl)-1H-benzo[d]imidazole-6-carboxylic acid]",1,3.83,
"N#CCC1(Cn2c(Cc3ccc(-c4ccc(F)c(OCc5ccc(C#N)cc5F)n4)cc3F)nc3ccc(C(=O)O)cc32)CC1 [Example 162, 2-(4-(6-((4-cyano-2-fluorobenzyl)oxy)-5-fluoropyridin-2-yl)-2-fluorobenzyl)-1-((1-(cyanomethyl)cyclopropyl)methyl)-1H-benzo[d]imidazole-6-carboxylic acid]",0.17,<1.83,

# Now from value to compound, other results behind:
EC50 (GLP-1R; [2]) [nM],Predicted Hepatic Clearance (Pred. Cl.) [1] [mL/min/kg],Compound,EC50 (GLP-1R; EC50 (nM)) [nM]
1.41,5,"N#Cc1ccc(COc2cccc(-c3cc(F)c(Cc4nc5ccc(C(=O)NS(=O)(=O)C6CC6)cc5n4C[C@@H]4CCO4)cc3F)n2)c(F)c1 [Example 163, (S)-2-(4-(6-((4-cyano-2-fluorobenzyl)oxy)pyridin-2-yl)-2,5-difluorobenzyl)-N-(cyclopropylsulfonyl)-1-(oxetan-2-ylmethyl)-1H-benzo[d]imidazole-6-carboxamide]",
32.9,6.7,"COCCn1c(Cc2cc(F)c(-c3ccc(F)c(NCc4ccc(C#N)cc4F)n3)cc2F)nc2ccc(C(=O)O)cc21 [Example 164, 2-(4-(6-((4-cyano-2-fluorobenzyl)amino)-5-fluoropyridin-2-yl)-2,5-difluorobenzyl)-1-(2-methoxyethyl)-1H-benzo[d]imidazole-6-carboxylic acid]",
0.01,4,"N#CCC1(Cn2c(Cc3ccc(-c4ccc(F)c(OCc5ccc(C#N)cc5F)n4)cc3F)nc3c(F)cc(C(=O)O)cc32)CC1 [Example 165, 2-(4-(6-((4-cyano-2-fluorobenzyl)oxy)-5-fluoropyridin-2-yl)-2-fluorobenzyl)-1-((1-(cyanomethyl)cyclopropyl)methyl)-4-fluoro-1H-benzo[d]imidazole-6-carboxylic acid]",
0.06,4.83,"N#Cc1ccc(COc2nc(-c3cc(F)c(Cc4nc5ccc(C(=O)O)cc5n4C[C@@H]4CCO4)c(F)c3F)ncc2F)c(F)c1 [Example 166, (S)-2-(4-(4-((4-cyano-2-fluorobenzyl)oxy)-5-fluoropyrimidin-2-yl)-2,3,6-trifluorobenzyl)-1-(oxetan-2-ylmethyl)-1H-benzo[d]imidazole-6-carboxylic acid]",
0.11,6,"N#Cc1ccc(COc2nc(-c3cc(F)c(Cc4nc5c(F)cc(C(=O)O)cc5n4CC4(CF)CC4)cc3F)ncc2F)c(F)c1 [Example 167, 2-(4-(4-((4-cyano-2-fluorobenzyl)oxy)-5-fluoropyrimidin-2-yl)-2,5-difluorobenzyl)-4-fluoro-1-((1-(fluoromethyl)cyclopropyl)methyl)-1H-benzo[d]imidazole-6-carboxylic acid]",
1.06,<1.83,"N#CCC1(Cn2c(Cc3ccc(-c4ccnc(OCc5ccc(C#N)cc5F)n4)cc3F)nc3c(F)cc(C(=O)O)cc32)CC1 [Example 168, 2-(4-(2-((4-cyano-2-fluorobenzyl)oxy)pyrimidin-4-yl)-2-fluorobenzyl)-1-((1-(cyanomethyl)cyclopropyl)methyl)-4-fluoro-1H-benzo[d]imidazole-6-carboxylic acid]",
4.31,5.33,"COCCn1c(Cc2ccc(-c3ncc(F)c(OCc4ccc(C#N)cc4F)n3)c(F)c2F)nc2ccc(C(=O)O)cc21 [Example 169, 2-(4-(4-((4-cyano-2-fluorobenzyl)oxy)-5-fluoropyrimidin-2-yl)-2,3-difluorobenzyl)-1-(2-methoxyethyl)-1H-benzo[d]imidazole-6-carboxylic acid]",
509,6.33,"COCCn1c(Cc2ccc(-c3cccc(NCc4ccc(C#N)cc4F)n3)cc2F)nc2ccc(C(=O)O)cc21 [Example 170, 2-(4-(6-((4-cyano-2-fluorobenzyl)amino)pyridin-2-yl)-2-fluorobenzyl)-1-(2-methoxyethyl)-1H-benzo[d]imidazole-carboxylic acid]",
38,9.5,"COCCn1c(Cc2ccc(-c3cccc(OCc4ccc(C#N)cc4F)n3)cc2C(F)(F)F)nc2ccc(C(=O)O)cc21 [Example 172, 2-(4-(6-((4-cyano-2-fluorobenzyl)oxy)pyridin-2-yl)-2-(trifluoromethyl)benzyl)-1-(2-methoxyethyl)-1H-benzo[d]imidazole-carboxylic acid]",
